Laboratory results as given in patent publication US20120035069A1, “PROGNOSIS OF BREAST CANCER PATIENTS BY MONITORING THE EXPRESSION OF TWO GENES” (priority 2009, published 2012).

Legend:
MDA-MB-231 cells [1] = test: Matrigel invasion (evasion) assay; format: cell-based, human; settings: SB431542 5 μM; control MDA-MB-231 cells embedded in a drop of Matrigel
Protocol: (C) Assay for invasive activity of MDA-MB-231 cells embedded in a drop of matrigel. Panels show pictures of the same field at different time points. Dotted is lines highlight the edges of the drop. Only control cells are able to evade from the Matrigel® (arrows). This process is dependent on TGFβ signaling as it is blocked by treatment with the TGFβR1 inhibitor SB431542 (5 μM). MDA shp53 cells are impaired in matrix degradation and evasion.
For matrigel invasion assay shown in FIG. 2C, MDA-MB-231 and derivative cell lines were resuspended in drops ([…]) of Matrigel Growth Factor Reduced (BD Biosciences), diluted 1:2 in DMEM/F12.

MDA-MB-231 cells [2] = test: Transwell migration assay; format: cell-based, human; settings: control MDA-MB-231 cells; TGFβ1 5 ng/ml
Protocol: Transwell migration assay were performed in 24 well PET inserts (Falcon […] pore size) for migration assays. For MDA-MB-231, cells were plated in 10 cm dishes, transfected with siRNA and, after 8 hours, serum starved overnight. Then, 50000 or 100000 cells were plated in transwell inserts (at least 3 replicas for each sample) and either left untreated or treated with TGFβ1 (5 ng/ml). For H1299, cells is were plated in the transwell in 10% serum but then changed to 0.2% serum. For both cell lines, cells in the upper part of the transwells were removed with a cotton swab; migrated cells were fixed in PFA 4% and stained with Crystal Violet 0.5%. Filters were photographed and the total number of cells counted. Every experiment was repeated at least 3 times independently.

Compound: NC(=O)c1ccc(-c2nc(-c3ccc4c(c3)OCO4)c(-c3ccccn3)[nH]2)cc1 [SB431542]
- evasion of cells from the Matrigel drop (TGFβ-dependent invasive activity) (MDA-MB-231 cells [1]): blocked

Compound: TGFβ: TGFβ provided from Peprotech, used to treat cells
- migration through transwell in response to TGFβ (MDA-MB-231 cells [2]): potent promigratory response
